What was measured:
[1] = system: coronavirus (SARS); conditions: cited from earlier work
[2] = system: human coronavirus strain OC-43; assay type: cell-based
[3] = system: Mouse Hepatitis Virus Type-3 (MHV-3); conditions: in vivo; cited from earlier work
[4] = system: Mouse Hepatitis Virus Type-3 (MHV-3); conditions: in vivo; cited from earlier work; remark: listed apart in the source
[5] = system: Four human tumor cell lines; conditions: cited from earlier work
[6] = system: human coronavirus strain OC-43; assay type: cell-based; remark: listed apart in the source

Molecule | Effect on the SARS coronavirus [1] | Inhibition of virus in viral cytopathic inhibition assay [2] | Virus clearance and development of chronic hepatitis [3] | Survival relative to untreated mice [4] | Antiproliferative interaction with interferons [5] | Inhibition of virus in neutral red assay [6]
NC(=O)c1ncn([C@@H]2O[C@H](CO)[C@@H](O)[C@H]2O)n1 [ribavirin] | no effect |  |  |  |  | 
rIn.r(C12U)n |  | inhibit | cleared the virus quickly and did not develop chronic hepatitis | survived up to four times longer | worked synergistically with all interferons in all cell lines studied | inhibit

From US7678774B2 (priority 2003, dated 2010)
